# Test results published in US20050137215A1, “[C]-fused bicyclic proline derivatives and their use for treating arthritic conditions” (priority 2003, published 2005).
# Structures can show the parent of a compound that is named as a salt.
# Key:
# alpha-2-delta receptor 2 = alpha-2-delta receptor 2 (UniProt A0A8W4FF87); test: [3H]Gabapentin A2DR2 binding assay; parameters: species or system pig; settings: Biological Method 4; read-out: A2DR2 IC50, displacement of [3H]-gabapentin
# From the text: (§1) [^3H]Gabapentin A2DR1 and A2DR2 Binding Assays (“A2DR1” and “A2DR2”, Respectively)
# (§2) HEK 293 recombinant cells expressing A2DR1 or A2DR2 protein are harvested and washed in phosphate buffered saline (“PBS”). The cells are centrifuged and resuspended in tris(hydroxymethyl)aminomethane-ethylenediaminetetraacetic acid (“Tris-EDTA” or “TE”) buffer containing Roche Complete Protease Inhibitor Cocktail. The cells are homogenized, centrifuged at 3000×g, and the supernatant centrifuged again at 50,000×g. The resulting pellet is resuspended and homogenized in TE. Following determination of A2DR1 or A2DR2 protein concentration, aliquots are stored at −70° C. until the day of testing (membrane preparation may be used for at least 6 months).
# (§3) In one version, the binding assay is set up in a 96-well format using deep-well polypropylene plates. […] Non-specific binding for each plate is determined by the addition of 10 μM of pregabalin instead of test compound in a few of the 96 wells. […] The mats are placed into plastic pouches, scintillation cocktail is added, the pouches are sealed, and radioactivity for each sample is counted.
# Specific binding values for each concentration are transformed and then analyzed by a 4-parameter nonlinear regression equation provided by Prism graphics software by Graph Pad to determine IC50 values by conventional means. […]
# alpha-2-delta receptor 1 = alpha-2-delta receptor 1 (Sus scrofa, UniProt A0A287BIN3); test: [3H]Gabapentin A2DR1 binding assay; parameters: species or system pig; settings: Biological Method 4; read-out: A2DR1 IC50, displacement of [3H]-gabapentin
# From the text: as §1, §2, §3
# (§4) Specific binding values for each concentration are transformed and then analyzed by a 4-parameter nonlinear regression equation provided by Prism graphics software by Graph Pad to determine IC50 values by conventional means.
# Displacement of [3H]-gabapentin from an alpha-2-delta receptor-1 or an alpha-2-delta receptor-2 by certain invention compounds is evidenced below in Table 2. In Table 2, the displacement was determined according to one of the above Biological Methods 4 or 6, and reported as an IC50 in micromolar concentration of invention compound in the columns labeled “A2DR1 IC50 (μM),” “A2DR2 IC50 […],” and “GABAPAA IC50 (μM),” respectively, for a reference compound, racemic octahydroisoindole-2-carboxylic acid (“OHIII2CA”) and certain invention compounds, which are referenced by Compound Example number in the column labeled “Compound Example No.”.
# [1] = tested on: Monosodium Iodoacetate-Induced Osteoarthritis in Rat Model of Joint Cartilage Damage; test: Monosodium iodoacetate-induced osteoarthritis in rat (MIA Rat), loss of hind limb joint function; type: in vivo; settings: male Wistar rats, MIA 1 mg/joint, 10 mg/kg/day subcutaneously via osmotic pump
# From the text: Monosodium Iodoacetate-Induced Osteoarthritis in Rat Model of Joint Cartilage Damage (“MIA Rat”):
# One end result of the induction of osteoarthritis in this model, as determined by histologic analysis, is the development of an osteoarthritic condition within the affected joint, as characterized by the loss of Toluidine blue staining and formation of osteophytes. Associated with the histologic changes is a concentration-dependent degradation of joint cartilage, as evidenced by affects on hind-paw weight distribution of the limb containing the affected joint, the presence of increased amounts of proteoglycan or hydroxyproline in the joint upon biochemical analysis, or histopathological analysis of the osteoarthritic lesions.
# The invention compounds typically are not effective for relieving joint pain when administered in an acute model, such as the instant MIA Rat model, which has a duration of just 14 or 28 days.
# Generally, In the MIA Rat model on Day 0, the hind-paw weight differential between the right arthritic joint and the left healthy joint of male Wistar rats (150 g) are determined with an incapacitance tester, model 2KG (Linton Instrumentation, Norfolk, United Kingdom). The incapacitance tester has a chamber on top with an outwardly sloping front wall that supports a rat's front limbs, and two weight sensing pads, one for each hind paw, that facilitates this determination. Then the rats are anesthetized with isofluorine, and the right, hind leg knee joint is injected with 1.0 mg of mono-iodoacetate (“MIA”) through the infrapatellar ligament. Injection of MIA into the joint results in the inhibition of glycolysis and eventual death of surrounding chondrocytes. The rats are further administered either an invention compound or vehicle (in the instant case, water) daily for 14 days or 28 days.
# The invention compound is typically administered at a dose of 30 mg of per kilogram of rat per day (30 mg/kg/day), but may be administered at other doses such as, for example, 10 mg/kg/day, 60 mg/kg/day, 90-mg/kg/day, or 100 mg/kg/day according to the requirements of the invention compound being studied. It is well within the level of ordinary skill in the pharmaceutical arts to determine a proper dosage of an invention compound in this model.
# Administration of an invention compound in this model is optionally by oral administration or by intravenous administration via an osmotic pump. After 7 and 14 days for a two week study, or 7, 14, and 28 days for a four week study, the hind-paw weight distribution is again determined. Typically, the animals administered vehicle alone place greater weight on their unaffected left hind paw than on their right hind paw, while animals administered an invention compound show a more normal (i.e., more like a healthy animal) weight distribution between their hind paws. This change in weight distribution was proportional to the degree of joint cartilage damage. Percent inhibition of a change in hind paw joint function is calculated as the percent change in hind-paw weight distribution for treated animals versus control animals. For example, for a two week study, [formula] wherein: ΔWC is the hind-paw weight differential between the healthy left limb and the arthritic limb of the control animal administered vehicle alone, as measured on Day 14; and • ΔWG is the hind-paw weight differential between the healthy left limb and the arthritic limb of the animal administered an invention compound as measured on Day 14.
# Administration via osmotic pump is preferable for screening compounds. In a particular experiment, monosodium iodoacetate (“MIA”) (1 mg/joint) was injected through the infrapatellar ligament of the right knee of anesthetized male, Wistar rats. The contralateral control knee was injected with 50 μL of physiologic saline. […]
# [2] = target: alpha-2-delta receptors, membrane from pig cortex (Sus scrofa, UniProt O77773); test: [3H]Gabapentin A2DR binding assay (GABAPAA / GABAP); settings: Biological Method 6, pig cortex membrane; read-out: GABAPAA IC50, displacement of [3H]-gabapentin
# Procedure: In one version, the binding assay is set up in a 96-well format using deep-well polypropylene plates. In a total volume of 500 μL, the following additions are made: 250 μL buffer [10 mM N-2-hydroxyethylpiperazine-N′-2-ethanesulfonic acid (“HEPES”), pH 7.4], 25 μL [3H]gabapentin (10 nM final concentration), 200 μL thawed tissue membrane preparation from Step (1) (˜40 μg protein), and 25 μL of test compound at 7 test dilutions (for example, 0.001, 0.01, 0.03, 0.1, 0.3, 1.0, and 10 μM concentrations). Non-specific binding for each plate is determined by the addition of 10 μM of pregabalin instead of test compound in a few of the 96 wells. Following incubation for 45 minutes at 21° C., the contents of the wells are filtered under vacuum onto glass filter/B (“GF/B”) filter mats and then washed 4×1 mL with chilled 50 mM tris(hydroxymethyl)aminomethane (“Tris”) HCl, pH 6.9. The mats are placed into plastic pouches, scintillation cocktail is added, the pouches are sealed, and radioactivity for each sample is counted.
# as §4
# [^3H]Gabapentin A2DR Binding Assay (“GABAPAA” or “GABAP”) […]
# leucine transport system = leucine transport system (Cricetulus griseus, UniProt G3GRU9); test: Leucine transport system binding assay (LTSBA), [3H]leucine uptake in CHO K1 cells; type: cell-based; settings: conclusion from Table 3
# Procedure: Leucine Transport System Binding Assay (“LTSBA”) The sodium-containing buffer for transport assay was phosphate buffered saline (“PBS”) consisting of 137 mM NaCl, 2.7 mM KCl, 10.6 mM Na2HPO4, and 1.5 mM KH2PO4. The sodium-free buffer had equimolar amounts of choline chloride and choline phosphate in place of NaCl and […], respectively. This buffer is referred to as PBC. Prior to use, both PBS and PBC buffers (pH 7.4) were supplemented with 5.6 mM D-glucose, 0.49 mM MgCl2, and 0.9 mM CaCl2 (GMC). For cultured monolayer cells (in general, CHO K1 cells), the cluster tray transport assay was used as described previously (Su et al, J. Neurochem., 1995; 64:2125-2131, and references therein). […] The initial transport rates were determined by measuring uptake of tracer [3H] […] Secondary analysis of the initial velocity kinetic curves were determined by non linear regression analysis, using the equation: log V=log {[Vmax.S/(Km+S)]+P.[S]} where V, S, Vmax, and Km have their conventional meanings, and P represents the first order rate constant describing the nonsaturable uptake. An IC50 was determined as percentage inhibition of saturable leucine uptake. […] They were calculated by subtracting the corresponding substrate uptake rates in the presence of 10 mM excess unlabeled leucine from the total uptake rates. […] The efflux was calculated as percentage of the intracellular labeled substrate at zero time. […]
# Chain of leucine transport system (G3GRU9 entry or part of it): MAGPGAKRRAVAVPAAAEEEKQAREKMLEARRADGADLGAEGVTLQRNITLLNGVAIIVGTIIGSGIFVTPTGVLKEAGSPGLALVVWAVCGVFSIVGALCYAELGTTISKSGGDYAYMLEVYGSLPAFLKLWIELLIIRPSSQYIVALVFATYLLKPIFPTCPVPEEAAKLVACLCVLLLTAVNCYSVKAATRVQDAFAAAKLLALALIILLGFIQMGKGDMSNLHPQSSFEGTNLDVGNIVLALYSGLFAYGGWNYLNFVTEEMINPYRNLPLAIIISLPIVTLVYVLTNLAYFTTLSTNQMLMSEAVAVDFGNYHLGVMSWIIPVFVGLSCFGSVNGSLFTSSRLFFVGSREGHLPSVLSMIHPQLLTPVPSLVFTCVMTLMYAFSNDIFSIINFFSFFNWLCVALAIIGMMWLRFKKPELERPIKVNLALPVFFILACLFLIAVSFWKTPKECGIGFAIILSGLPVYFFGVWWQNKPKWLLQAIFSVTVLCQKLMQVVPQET
# Chain of leucine transport system (A0A9J7CH39 entry or part of it, further chain): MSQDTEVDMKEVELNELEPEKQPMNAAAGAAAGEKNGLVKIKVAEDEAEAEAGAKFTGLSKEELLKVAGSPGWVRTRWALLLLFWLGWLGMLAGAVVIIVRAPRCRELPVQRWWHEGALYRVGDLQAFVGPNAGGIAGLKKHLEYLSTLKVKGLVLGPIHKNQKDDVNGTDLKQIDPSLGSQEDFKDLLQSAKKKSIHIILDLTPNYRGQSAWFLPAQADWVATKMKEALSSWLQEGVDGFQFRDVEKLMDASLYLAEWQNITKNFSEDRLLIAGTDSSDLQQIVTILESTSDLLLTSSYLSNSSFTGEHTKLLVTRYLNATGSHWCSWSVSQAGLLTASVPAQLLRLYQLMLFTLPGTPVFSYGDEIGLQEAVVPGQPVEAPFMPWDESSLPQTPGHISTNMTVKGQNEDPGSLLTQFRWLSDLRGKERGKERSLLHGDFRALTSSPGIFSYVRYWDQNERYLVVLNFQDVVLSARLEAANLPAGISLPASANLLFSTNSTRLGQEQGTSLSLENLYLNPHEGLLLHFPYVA
# Chain of alpha-2-delta receptors, membrane from pig cortex (O77773 25-1091): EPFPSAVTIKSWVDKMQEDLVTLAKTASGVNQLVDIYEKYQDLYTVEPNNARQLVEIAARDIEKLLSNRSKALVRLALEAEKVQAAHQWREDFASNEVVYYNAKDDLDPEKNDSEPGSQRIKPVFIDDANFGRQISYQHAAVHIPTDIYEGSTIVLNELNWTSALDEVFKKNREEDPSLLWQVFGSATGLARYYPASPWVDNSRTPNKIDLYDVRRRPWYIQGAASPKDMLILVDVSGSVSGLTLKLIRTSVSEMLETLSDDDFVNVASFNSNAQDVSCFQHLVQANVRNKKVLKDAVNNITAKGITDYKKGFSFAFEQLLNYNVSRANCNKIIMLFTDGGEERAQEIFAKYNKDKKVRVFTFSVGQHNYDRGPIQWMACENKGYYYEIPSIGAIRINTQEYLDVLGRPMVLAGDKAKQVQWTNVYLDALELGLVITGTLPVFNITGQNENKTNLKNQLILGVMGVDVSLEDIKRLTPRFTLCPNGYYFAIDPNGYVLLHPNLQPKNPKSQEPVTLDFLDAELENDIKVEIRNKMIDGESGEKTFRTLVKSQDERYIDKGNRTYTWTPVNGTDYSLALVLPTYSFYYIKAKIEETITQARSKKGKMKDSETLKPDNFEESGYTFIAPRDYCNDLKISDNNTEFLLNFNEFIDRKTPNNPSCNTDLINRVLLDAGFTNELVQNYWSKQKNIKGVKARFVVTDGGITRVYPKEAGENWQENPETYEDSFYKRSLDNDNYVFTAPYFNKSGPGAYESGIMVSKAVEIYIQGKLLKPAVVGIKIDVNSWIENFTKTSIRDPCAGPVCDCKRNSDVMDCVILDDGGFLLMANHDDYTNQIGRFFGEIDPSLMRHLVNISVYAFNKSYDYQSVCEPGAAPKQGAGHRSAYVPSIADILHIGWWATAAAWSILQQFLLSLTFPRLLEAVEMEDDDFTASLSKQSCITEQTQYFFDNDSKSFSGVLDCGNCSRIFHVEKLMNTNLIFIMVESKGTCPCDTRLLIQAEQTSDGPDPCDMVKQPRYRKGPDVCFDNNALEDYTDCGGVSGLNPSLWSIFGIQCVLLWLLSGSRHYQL
melting point,Structure (SMILES),% I @ 10 mg/kg/day (%) (± SEM): inhibition of loss of hind limb joint function in MIA at Day 14 [1],further results
235 to 241 °C (dec.),COC1CC2CNC(C(=O)O)C2CC1OC (centres unmarked),,
200 to 205 °C (dec.),O=C(O)C1NCC2C1CCC2(F)F (centres unmarked),,
188 to 190 °C,O=C(O)[C@@H]1NC[C@@H]2[C@H]1[C@H]1CC[C@@H]2O1 (racemic),,
250 to 255 °C,O=C(O)[C@@]12CCCN1C[C@H]1CCCC[C@H]12 (racemic) (as salt: hydrochloride),,
,CC1(C)N[C@H](C(=O)O)[C@@H]2CCCC[C@H]21 (racemic) [Example B5],32,IC50 (alpha-2-delta receptor 2): ≥ 10 µM; IC50 (alpha-2-delta receptor 1): ≥ 10 µM
,"O=C(O)N1CC2CCCCC2C1 (racemic) [OHII2CA, racemic octahydroisoindole-2-carboxylic acid]",,IC50 [2]: 0.03 µM
,CN1CC2CCCCC2C1(C)C(=O)O (centres unmarked) [Example B1],32,
,C[C@]1(C(=O)O)NC[C@H]2CCCC[C@H]21 [Example B2],−5,IC50 (alpha-2-delta receptor 2): ≥ 10 µM; IC50 (alpha-2-delta receptor 1): ≥ 10 µM
,CC12CCCCC1CNC2C(=O)O (centres unmarked) [Example B4],13,
,O=C(O)[C@@]12CCCN1C[C@H]1CCCC[C@H]12 [Example M1],,IC50 (alpha-2-delta receptor 1): ≥ 10 µM
,CN1C[C@H]2C3CCC(CC3)[C@H]2[C@@H]1C(=O)O [Example R2],−20,
,O=C(O)C1NCC2C3CCC(CC3)C12 (centres unmarked) [Example R3],20,
,"Cl.O=C(O)N1CC2CCCCC2C1 (centres unmarked) [OHII2CA HCl, octahydroisoindole-2-carboxylic acid hydrochloride]",,binding to the leucine transport system (in words) (leucine transport system): weakly bind or do not bind
